Results reported in patent publication US9556236B1, “Compositions and methods for treating respiratory syncytial virus infection” (priority 2012, dated 2017).
“Also recorded” adds a separate entry of the source. Positions of bridges follow the written chain, without caps; N, C: chain ends. No end group written: not given here.

Assays:
[1] = system: RG RSV; assay: HR2-D peptide series, prophylactic model of infection in Vero cells, GFP by flow cytometry; type: cell-based, respiratory syncytial virus; settings: for GFP from positive control: prophylactic
Protocol: (§1) 25K Vero or A549 cells grown in 48-well plates and supplied with DMEM (no serum) were treated with a dose of peptides or micelle-peptides (5 μM peptide/well) for 30 min. previous to infection with RSV. Infection was carried out at a 0.1 MOI and allowed in the cell culture for 1 h. After removal of viral supernatant, the cells were treated with a second dose of peptides or peptide-loaded micelles containing 5 μM peptide/well in DMEM (5% FBS, 1% P/S). Infection was followed for a period of 48 h through microscopy and quantified through flow cytometry.
Infection experiments with the HR2-D series were carried out in Vero cells following a prophylactic model of infection using RG RSV (MOI=0.1) strain. At 48 h after infection, the cells were analyzed for GFP (positive RSV infection) by flow cytometry. […] Compared to HR2-D0, HR2-D1 is about 30% lower. For the activity of the inhibitor peptide HR2-D (˜20% GFP from positive control), as shown by the loss of activity by 1.5 fold for HR2-D2 vs. 2.5 fold for peptide HR2-D1. Moreover, the presence of the one free cysteine which is not forming a disulfide bond might result in destabilizing the whole structure. HR2-D1 and HR2-D2 have a free cysteine residue at position 9 and 32, respectively while HR2-S, HR2-D3 and HR2-D4 contain only one pair of cysteines.

[2] = system: A2 RSV; assay: RSV titers by plaque assay in HEp-2 cells in presence of peptide, A2 strain; type: cell-based, respiratory syncytial virus; settings: for inhibition of A2 infection by viral titers: 24-96 h after infection
Protocol: (§2) Growth and titration of the respiratory syncytial virus (RSV) strains A2, RG RSV (green-fluorescent tag), and rA2 were performed as previously described in the literature.^17,18 RSV was propagated in HEp-2 cells containing 0.1 PFU/cell in T-175 flasks supplied with 7 ml of 2% FBS, OptiMEM (virus yield 10^6-10^7 pfu/ml). Infection was allowed for 2 h. (at 37° C., 5% CO2) and then replaced with fresh media. The infection was allowed to progress until CPE (80-90%), typically happening after 3 days of incubation. Viral suspension was collected and combined with scrapped cells in to a vial and centrifuged at 3200 rpm for 10 min at 4° C. The culture supernatant was collected and mixed with 0.1 volumes of sterile magnesium sulfate (1M). Last, viral supernatant was stored in cryovials and stored in liquid nitrogen tank.^18,19 Viral titers were measured using carboxymethylcellulose plaque assay on HEp-2 cells grown to 80-90% confluency at 5% FBS/DMEM in a 24-well plate (70K cells per well).^17,18,19 Virus particles were visible and quantitated after immunochemistry treatment of the cells with primary anti-RSV F mouse monoclonal [RSV3216 (B016)] (1:1000 dilution) and secondary antibody against primary with HRP conjugate.
(§3) The effect of inhibitory peptides (HR2-A, HR2-B, HR2-C, HR2-D, HR2-E, HR2-S, HR2-D0, HR2-D1, HR2-D2, HR2-D3, HR2-D4) on RG RSV infection given by prophylactic method was visualized by inverted fluorescence microscopy (Olympus IX371) and quantitated by flow cytometry. For plaque assays, 50K HEp2 cells/well were seeded in 24-well plates and infected with RG RSV (0.1-1 MOI) in the presence of peptides for 1 h. The viral supernatant was removed and a second dose of peptides in methylcellulose/5% FBS was overlaid onto the cells. Plaques were visualized and quantified (3-5 days pi). Cellular uptake was characterized using confocal microscopy and flow cytometry. For confocal imaging, 50K cells (Vero, A549) were placed on a […] and grown overnight before treatment with MPs (5 μM peptide conc./dish) and incubated for 1 h at 37° C. Cells were placed in a live-cell environmental chamber at 37° C. with 5% CO2 and imaged using spinning-disk confocal microscopy (Olympus IX81 confocal microscope). Uptake was quantified by flow cytometry (BD FacsAria analyzer/sorter). Samples for flow cytometry were prepared using 50K cells/well seeded in 24-well plates and grown in DMEM plus 10% FBS and incubated with peptides at a concentration of 5 μM peptide/well for 30 min at 37° C. […] Final cell pellet was suspended in 400 μl of 1×PBS and analyzed for green and/or red content.
Following the same methodology as for flow, two doses of peptides were used, and virus inoculation was 0.2 MOI. Titers were quantified 24 to 96 h after infection (pi).

[3] = system: RG RSV; assay: Therapeutic antiviral activity of FMDs in A549 cells infected with RG RSV; type: cell-based, respiratory syncytial virus; settings: administered 24 h pi, RG RSV low MOI
Protocol: 25K A549 cells grown in 48-well plates and supplied with DMEM (no serum) were infected with RSV at a 0.1 MOI for 1 h. After washing the viral supernatant, cells were incubated in DMEM (5% FBS, 1% P/S) allowing progression of infection for different time periods (4 and 24 h), however, only 24 h is shown here. At these two time points, cells were treated with a dose of peptides or micelle-peptides containing 5 μM peptide/well. Infection was followed for a period of 48 h through microscopy and quantified through Image J statistical analysis software.
For testing the efficiency of FMDs, cytotoxicity was measured in A549 cells at different HR2-D peptide concentrations using FM2D and FM3D, respectively (FIG. 10A). EM2 and EM3 represent empty micelle control. A549 cells were infected according to therapeutic conditions, and FMD (6 μM FM2D, 5 μM FM3D) were administered 24 h pi. The images were visualized 48 h pi (FIG. 10B) and the inhibitory efficiency quantified using flow cytometry (FIGS. 10C and 10D). […] FM3D had good inhibitory activity by suppressing the expression of GFP by 65% as compared to the control.

[4] = system: RG RSV; assay: Prophylactic model of RSV infection in HEp2 cells, flow cytometry of GFP, RG RSV; type: cell-based, respiratory syncytial virus; settings: two doses 5 μM peptide, 0.2 MOI, vs untreated positive control
Protocol: as §3, with “Cells were placed in a live-cell environmental chamber at 37° C. with 5% CO2 and imaged using spinning-disk confocal microscopy (Olympus IX81 confocal microscope).” left out, “analyzer/sorter).” for “analyzer/sorter). Samples for flow cytometry were prepared using 50K cells/well seeded in 24-well plates and grown in DMEM plus 10% FBS and incubated with peptides at a concentration of 5 μM peptide/well for 30 min at 37° C.”
(§4) The anti-RSV activity of peptides HR2-S, HR2-E, HR2-A, HR2-B, HR2-C, and HR2-D was tested in vitro following a prophylactic model of RSV infection in HEp2 cells described in the experimental section above. RG and RA2 RSV strains were used to quantify infection by flow and RA2 and A2 strains were used to quantitate the viral titers by immunochemistry. […]

[5] = Hydrodynamic diameter by dynamic light scattering; type: physicochemical; settings: DLS, in water
Protocol: The hydrodynamic radius of functionalized micelles (FMDs), micelle-peptide complexes (MPs), FMP, Cy5-amine-coated micelles and Cy5-HR2-D in water was measured using dynamic light scattering and zeta potential (DLS, Microtrac). Aliquots for DLS were prepared by diluting the stock samples 1:5, passing them through a 0.2 μm syringe-filter and sonicating for 10 min to disrupt aggregation.

[6] = system: RG RSV; assay: Free peptide and Cy5-labeled MPs, prophylactic model in Vero cells at low and high MOI, flow cytometry; type: cell-based, respiratory syncytial virus
Protocol: as §1
The effect of inhibitory peptides (HR2-A, HR2-B, HR2-C, HR2-D, HR2-E, HR2-S, HR2-D0, HR2-D1, HR2-D2, HR2-D3, HR2-D4) on RG RSV infection given by prophylactic method was visualized by inverted fluorescence microscopy (Olympus IX371) and quantitated by flow cytometry. […] Plaques were visualized and quantified (3-5 days pi). […] Uptake was quantified by flow cytometry (BD FacsAria analyzer/sorter). […] Final cell pellet was suspended in 400 μl of 1×PBS and analyzed for green and/or red content.
The hydrodynamic diameter of micelles with surface-conjugated peptides (MPs) was measured and compared to MPs with peptides also in the core (FMPs) (FIG. 6A). […] Subsequently experiments involved using Cy5 labeled peptides conjugated to the micelles and quantifying its activity against RG RSV infection by flow cytometry. […]

[7] = system: rgRSV; assay: In vivo model of rgRSV infection and intranasal prophylactic treatment; set-up: species or system BALB/c mice; settings: intranasal 50 μL of 125 μM 1 h before rgRSV 1×10^6 pfu, 24 h post infection, vs empty micelle control
Protocol: Ten week old BALB/c mice (n=4 per group) were anesthetized and treated intranasally with the indicated HR2D peptide (125 μM in 1.2% DMSO) or packaged in filled micelles or with chitosan nanoparticles and empty micelles control. One hour post reatment, three groups of mice were inoculated with a single dose of rgRSV at 1×10^6 pfu/mouse. Mice were sacrificed at 24 hours post infection and the noses harvested, sectioned, stained with DAPI and imaged for GFP using an Olympus fluorescent microscope.
To determine if the in vitro anti-RSV activity of HR2D translated to an in vivo context, in vivo testing was performed on mice. HR2D peptide itself, HR2 peptide with filled micelles, empty micelles as control, and HR2D peptide chitosan nanocomplexes were each administered by nasal drop (50 μL of 125 μM solution in 1.2% DMSO) to ten week old BALB/c mice followed by intranasal inoculation with a single dose of rgRSV (1×10^6 pfu) one hour later. Mice were sacrificed 24 hours after infection, and the noses harvested, sectioned, stained with DAPI, and subjected to fluorescence imaging. […] Thus, we find that pretreatment of rgRSV-infected mice with intranasal HR2D peptide markedly decreases nasal infection.

[8] = system: RA2 RSV; assay: RSV titers by plaque assay in HEp-2 cells in presence of peptide, RA2 strain; type: cell-based, respiratory syncytial virus; settings: 24-96 h after infection
Protocol: as §2, with “The culture supernatant was collected and mixed with 0.1 volumes of sterile magnesium sulfate (1M).” left out, “(1:1000 dilution) and secondary antibody against primary with HRP conjugate.” left out
The effect of inhibitory peptides (HR2-A, HR2-B, HR2-C, HR2-D, HR2-E, HR2-S, HR2-D0, HR2-D1, HR2-D2, HR2-D3, HR2-D4) on RG RSV infection given by prophylactic method was visualized by inverted fluorescence microscopy (Olympus IX371) and quantitated by flow cytometry. […] Plaques were visualized and quantified (3-5 days pi). […]

[9] = system: RSV RA2; assay: Prophylactic model of RSV infection in HEp2 cells, flow cytometry with FITC-labeled anti-RSV staining, RA2 RSV; type: cell-based, respiratory syncytial virus; settings: two doses 5 μM peptide, 0.2 MOI
Protocol: as §3, with “Cells were placed in a live-cell environmental chamber at 37° C. with 5% CO2 and imaged using spinning-disk confocal microscopy (Olympus IX81 confocal microscope).” left out, “analyzer/sorter).” for “analyzer/sorter). Samples for flow cytometry were prepared using 50K cells/well seeded in 24-well plates and grown in DMEM plus 10% FBS and incubated with peptides at a concentration of 5 μM peptide/well for 30 min at 37° C.”
as §4

[10] = RG RSV MOI=0.1, 48 h after infection

With “DACISQVNECINQSLAFICKSDELLCNT (disulfide (positions not given here)) [HR2-D, ID NO.: 7, two disulfides]” the “GFP from positive control” value [1, 10] was roughly 20%, the “inhibition of A2 infection by viral titers” value [2] was “greater inhibitory activity” and the “decrease in A2 titers” value ([2]; 96 h pi, 0.2 MOI) was 50,000 fold. For the same sequence, the “control of infection under therapeutic conditions” value [3] was “did not control the infection significantly”, the “inhibition of RG RSV infection (GFP expression)” value [4] was “greatest inhibition of RG RSV infection” and the hydrodynamic diameter [5] was 2 nm. The “infection blocked compared to positive control” value ([6]; low MOI (0.1), prophylactic, 24 h pi) was 85%, the “neutralization (peptide release comparison with controls)” value ([6]; virus concentration not stated at this place) was 70% and the “RSV infection (GFP-positive cells) in nose sections” value [7] was “significantly decreased virus infected cells in the nose”. For the same sequence, the “RSV infection (GFP-positive cells) in nose sections” value ([7]; listed as HR2D peptide) was “marked reduction in GFP-positive nasal tissue”.
With “DACISQVNECINQSLAFIRKSDELLCNT (not fully specified (bridges); cysteine pairing not given here) [HR2-D2, ID NO.: 10]” the “loss of activity relative to HR2-D” value ([1]; RG RSV MOI=0.1, 48 h) was 1.5 fold.
For “DACISQVNEKINQSLAFICKSDELLCNT (not fully specified (bridges); cysteine pairing not given here) [HR2-D1, ID NO.: 9]”, the “GFP lower compared to HR2-D0” value ([1]; RG RSV MOI=0.1, 48 h) was “about 30%” and the “loss of activity relative to HR2-D” value ([1]; RG RSV MOI=0.1, 48 h) was 2.5 fold.
With “DACISQVNEKINQSLAFIRKSDELLCNT (disulfide 3-26 (inferred)) [HR2-D3, ID NO.: 11]” the “activity less compared to HR2-S” value ([1]; RG RSV MOI=0.1, 48 h) was 3 fold.
For “DASISQVNECINQSLAFICKSDELLHNT (disulfide 10-19 (inferred)) [HR2-D4, ID NO.: 12]”, the “activity less compared to HR2-S” value ([1]; RG RSV MOI=0.1, 48 h) was 2 fold.
With “DASISQVNEKINQSLAFIRKSDELLHNT (Chemically synthesized anti-RSV peptide) [HR2-D0, ID NO.: 8, control peptide with no cysteine]” the “inhibitory activity against RSV infection” value [1, 10] was “did not show any inhibitory activity; also recorded: lack of activity”.
With “FDACISQVNECINQSLAFIRKSDELLHNVNAGKST (disulfide 4-11 (inferred)) [HR2-S, ID NO.: 2, one disulfide]” the “inhibition of RA2 infection by viral titers” value [8] was “did inhibit RA2 infection”, the “GFP from positive control” value [1, 10] was roughly 38% and the “inhibition of A2 infection by viral titers” value [2] was “did not block A2 infection effectively”. For the same sequence, the “reduction in A2 viral titers” value ([2]; 24 h to 96 h pi, 0.2 MOI, 5 μM peptide) was “about 0.2 fold”, the “inhibition of RA2 RSV infection” value [9] was “most effective inhibitor” and the “inhibition of RG RSV infection (GFP expression)” value [4] was “less GFP expression”.
